Assay results published in ChEMBL document CHEMBL1139196, “Synthesis of fluorescent-labeled aeruginosin derivatives for high-throughput fluorescence correlation spectroscopy assays” (Bioorg Med Chem Lett, 2007).

Biological target: Trypsin (Homo sapiens, UniProt P07477+P07478+P35030)
Test: Inhibition of trypsin by FCS method
Type: protein assay

Row | IC50 [nM] | SMILES
1 | 8800 | N=C(N)NCCC[C@@H](CO)NC(=O)[C@@H]1C[C@@H]2CC[C@@H](O)C[C@@H]2N1C(=O)[C@@H](Cc1ccc(O)cc1)NC(=O)[C@H](O)Cc1ccc(O)cc1
2 | 1000 | N=C(N)NCCC[C@H](NC(=O)[C@@H]1C[C@@H]2CC[C@@H](O)C[C@@H]2N1C(=O)[C@@H](Cc1ccc(O)cc1)NC(=O)[C@H](O)Cc1ccc(O)cc1)C(=O)O
3 | 150 | N=C(N)NCCCCNC(=O)[C@@H]1C[C@@H]2CC[C@@H](O)C[C@@H]2N1C(=O)[C@@H](Cc1ccc(O)cc1)NC(=O)[C@H](O)Cc1ccc(O)cc1
4 | 12000 | N=C(N)NCCC[C@H](NC(=O)[C@@H]1C[C@@H]2CC[C@@H](O)C[C@@H]2N1C(=O)[C@H](Cc1ccccc1)NC(=O)[C@H](O)Cc1ccc(O)cc1)C(=O)O
5 | 650 | CC(C)C[C@@H](NC(=O)[C@H](O)Cc1ccc(O)cc1)C(=O)N1[C@H](C(=O)N[C@@H](CCCNC(=N)N)C(=O)O)C[C@@H]2CC[C@@H](O)C[C@@H]21
